Article PMC9481151, “Discovery of new symmetrical and asymmetrical nitrile-containing 1,4-dihydropyridine derivatives as dual kinases and P-glycoprotein inhibitors: synthesis, in vitro assays, and in silico studies” (Journal of Enzyme Inhibition and Medicinal Chemistry, 2022)

Assays:
[1] = system: SF-539; test: NCI single dose (10 µM) SRB screen; format: cell-based, human; conditions: CNS cancer, 48 h
[2] = system: SNB-75; test: NCI single dose (10 µM) SRB screen; format: cell-based, human; conditions: CNS cancer, 48 h
[3] = system: NCI 60 cancer cell lines; test: NCI single dose (10 µM) SRB screen, mean over panel; format: cell-based, human; conditions: mean over 60 cell lines, 48 h
[4] = system: OVCAR-4; test: NCI single dose (10 µM) SRB screen; format: cell-based, human; conditions: ovarian cancer, 48 h
[5] = system: U251; test: NCI single dose (10 µM) SRB screen; format: cell-based, human; conditions: CNS cancer, 48 h
[6] = system: DU-145; test: NCI single dose (10 µM) SRB screen; format: cell-based, human; conditions: prostate cancer, 48 h
[7] = system: ACHN; test: NCI single dose (10 µM) SRB screen; format: cell-based, human; conditions: renal cancer, 48 h
[8] = system: MDA-MB-435; test: NCI single dose (10 µM) SRB screen; format: cell-based, human; conditions: melanoma, 48 h
[9] = system: A498; test: NCI single dose (10 µM) SRB screen; format: cell-based, human; conditions: renal cancer, 48 h
[10] = system: NCI-H322M; test: NCI single dose (10 µM) SRB screen; format: cell-based; conditions: non-small cell lung cancer, 48 h
[11] = system: Staphylococcus aureus; test: Agar well diffusion method
[12] = system: SW-620; test: NCI single dose (10 µM) SRB screen; format: cell-based, human; conditions: colon cancer, 48 h
[13] = system: MALME-3M; test: NCI single dose (10 µM) SRB screen; format: cell-based, human; conditions: melanoma, 48 h
[14] = system: CCRF-CEM; test: NCI single dose (10 µM) SRB screen; format: cell-based, human; conditions: leukaemia, 48 h
[15] = system: 786-0; test: NCI single dose (10 µM) SRB screen; format: cell-based, human; conditions: renal cancer, 48 h
[16] = system: LOX IMVI; test: NCI single dose (10 µM) SRB screen; format: cell-based, human; conditions: melanoma, 48 h
[17] = system: SR; test: NCI single dose (10 µM) SRB screen; format: cell-based, human; conditions: leukaemia, 48 h
[18] = system: A549/ATCC; test: NCI single dose (10 µM) SRB screen; format: cell-based, human; conditions: non-small cell lung cancer, 48 h
[19] = system: NCI-H226; test: NCI single dose (10 µM) SRB screen; format: cell-based, human; conditions: non-small cell lung cancer, 48 h
[20] = system: CAKI-1; test: NCI single dose (10 µM) SRB screen; format: cell-based, human; conditions: renal cancer, 48 h
[21] = system: TK-10; test: NCI single dose (10 µM) SRB screen; format: cell-based, human; conditions: renal cancer, 48 h
[22] = system: OVCAR-3; test: NCI single dose (10 µM) SRB screen; format: cell-based, human; conditions: ovarian cancer, 48 h
[23] = system: COLO 205; test: NCI single dose (10 µM) SRB screen; format: cell-based, human; conditions: colon cancer, 48 h
[24] = system: HL-60(TB); test: NCI single dose (10 µM) SRB screen; format: cell-based, human; conditions: leukaemia, 48 h
[25] = system: IGROV1; test: NCI single dose (10 µM) SRB screen; format: cell-based, human; conditions: ovarian cancer, 48 h
[26] = system: MCF7; test: NCI single dose (10 µM) SRB screen; format: cell-based, human; conditions: breast cancer, 48 h
[27] = system: SN12C; test: NCI single dose (10 µM) SRB screen; format: cell-based, human; conditions: renal cancer, 48 h
[28] = system: PC-3; test: NCI single dose (10 µM) SRB screen; format: cell-based, human; conditions: prostate cancer, 48 h
[29] = system: MDA-MB-468; test: NCI single dose (10 µM) SRB screen; format: cell-based, human; conditions: breast cancer, 48 h
[30] = system: UACC-257; test: NCI single dose (10 µM) SRB screen; format: cell-based, human; conditions: melanoma, 48 h
[31] = system: MOLT-4; test: NCI single dose (10 µM) SRB screen; format: cell-based, human; conditions: leukaemia, 48 h
[32] = system: HCT-116; test: NCI single dose (10 µM) SRB screen; format: cell-based, human; conditions: colon cancer, 48 h
[33] = system: NCI-H460; test: NCI single dose (10 µM) SRB screen; format: cell-based, human; conditions: non-small cell lung cancer, 48 h
[34] = system: SNB-19; test: NCI single dose (10 µM) SRB screen; format: cell-based, human; conditions: CNS cancer, 48 h
[35] = system: SF-295; test: NCI single dose (10 µM) SRB screen; format: cell-based, human; conditions: CNS cancer, 48 h
[36] = system: KM12; test: NCI single dose (10 µM) SRB screen; format: cell-based, human; conditions: colon cancer, 48 h
[37] = system: Escherichia coli; test: Agar well diffusion method; conditions: relative to ciprofloxacin
[38] = system: SK-MEL-5; test: NCI single dose (10 µM) SRB screen; format: cell-based, human; conditions: melanoma, 48 h
[39] = system: OVCAR-8; test: NCI single dose (10 µM) SRB screen; format: cell-based, human; conditions: ovarian cancer, 48 h
[40] = system: SF-268; test: NCI single dose (10 µM) SRB screen; format: cell-based, human; conditions: CNS cancer, 48 h
[41] = system: NCI-H522; test: NCI single dose (10 µM) SRB screen; format: cell-based, human; conditions: non-small cell lung cancer, 48 h
[42] = system: NCI-H23; test: NCI single dose (10 µM) SRB screen; format: cell-based, human; conditions: non-small cell lung cancer, 48 h
[43] = system: NCI/ADR-RES; test: NCI single dose (10 µM) SRB screen; format: cell-based, human; conditions: ovarian cancer, 48 h
[44] = system: Aspergillus flavus; test: Agar well diffusion method
[45] = system: SK-OV-3; test: NCI single dose (10 µM) SRB screen; format: cell-based, human; conditions: ovarian cancer, 48 h
[46] = system: SK-MEL-28; test: NCI single dose (10 µM) SRB screen; format: cell-based, human; conditions: melanoma, 48 h
[47] = system: M14; test: NCI single dose (10 µM) SRB screen; format: cell-based, human; conditions: melanoma, 48 h
[48] = system: OVCAR-5; test: NCI single dose (10 µM) SRB screen; format: cell-based, human; conditions: ovarian cancer, 48 h
[49] = system: RXF 393; test: NCI single dose (10 µM) SRB screen; format: cell-based, human; conditions: renal cancer, 48 h
[50] = system: RPMI-8226; test: NCI single dose (10 µM) SRB screen; format: cell-based, human; conditions: leukaemia, 48 h
[51] = system: HT29; test: NCI single dose (10 µM) SRB screen; format: cell-based, human; conditions: colon cancer, 48 h
[52] = system: Bacillus subtilis; test: Agar well diffusion method; conditions: relative to ciprofloxacin

SMILES: COC(=O)C1=C(C)NC(C)=C(C(=O)OCc2ccccc2)C1c1cccc(C#N)c1 (racemic) [Compound 2e, (±)-3-Benzyl 5-methyl 4-(3-cyanophenyl)-2,6-dimethyl-1,4-dihydropyridine-3,5-dicarboxylate]
- GI% SF-539 [1]: 32%
- GI% SNB-75 [2]: 34%
- Mean GI% [3]: 28%
- GI% OVCAR-4 [4]: – (Only GI% ≥ 10 are shown)
- GI% U251 [5]: 46%
- GI% DU-145 [6]: 15%
- GI% ACHN [7]: 28%
- GI% MDA-MB-435 [8]: 35%
- GI% A498 [9]: 10%
- GI% NCI-H322M [10]: – (Only GI% ≥ 10 are shown)
- zone of inhibition at 1000 µg/mL ([11]; Staphylococcus aureus, 24 h, read-out: Diameter of inhibition zone, S. aureus): 8 mm
- % activity index, S. aureus ([11]; relative to ciprofloxacin): 33.3%
- GI% SW-620 [12]: 45%
- GI% MALME-3M [13]: 24%
- GI% CCRF-CEM [14]: 37%
- GI% 786-0 [15]: 22%
- GI% LOX IMVI [16]: 61%
- GI% SR [17]: 33%
- GI% A549/ATCC [18]: 31%
- GI% NCI-H226 [19]: 31%
- GI% CAKI-1 [20]: 27%
- GI% TK-10 [21]: – (Only GI% ≥ 10 are shown)
- GI% OVCAR-3 [22]: – (Only GI% ≥ 10 are shown)
- GI% COLO 205 [23]: 43%
- GI% HL-60(TB) [24]: 43%
- GI% IGROV1 [25]: 36%
- GI% MCF7 [26]: 29%
- GI% SN12C [27]: – (Only GI% ≥ 10 are shown)
- GI% PC-3 [28]: 51%
- GI% MDA-MB-468 [29]: 33%
- GI% UACC-257 [30]: 21%
- GI% MOLT-4 [31]: 56%
- GI% HCT-116 [32]: 71%
- GI% NCI-H460 [33]: 64%
- GI% SNB-19 [34]: 32%
- GI% SF-295 [35]: 44%
- GI% KM12 [36]: 39%
- % activity index, E. coli [37]: – (Values below 25 are of limited value and not shown as they refer either to inactive or non-diffusing compounds)
- GI% SK-MEL-5 [38]: 37%
- GI% OVCAR-8 [39]: 34%
- GI% SF-268 [40]: 23%
- GI% NCI-H522 [41]: 24%
- GI% NCI-H23 [42]: – (Only GI% ≥ 10 are shown)
- GI% NCI/ADR-RES [43]: 25%
- zone of inhibition at 1000 µg/mL ([44]; Aspergillus flavus, 24 h, read-out: Diameter of inhibition zone, A. flavus): 10 mm
- % activity index, A. flavus ([44]; relative to clotrimazole): 40%
- GI% SK-OV-3 [45]: – (Only GI% ≥ 10 are shown)
- GI% SK-MEL-28 [46]: 27%
- GI% M14 [47]: 15%
- GI% OVCAR-5 [48]: 21%
- GI% RXF 393 [49]: 14%
- GI% RPMI-8226 [50]: 52%
- GI% HT29 [51]: 31%
- % activity index, B. subtilis [52]: – (Values below 25 are of limited value and not shown as they refer either to inactive or non-diffusing compounds)
